Test results as given in patent publication US12435059B2, “AMP-activated protein kinase inhibitors and methods of making and using the same” (The Regents of the University of Colorado, priority 2019, dated 2025).
Like-named read-outs stand apart in the source and are kept apart here.

Tests used:
Assay in all cases: biochemical
Type in all cases: binding
[1] = molecular target: 468 kinases (Homo sapiens, UniProt Q07912); settings: TNK2; read-out: % Inhibition @ 100 nM
[2] = molecular target: 468 kinases (Homo sapiens, UniProt Q9UL54); settings: TAOK2; read-out: % Inhibition @ 100 nM
[3] = molecular target: 468 kinases (Homo sapiens, UniProt Q96GD4); settings: AURKB; read-out: % Inhibition @ 100 nM
[4] = molecular target: 468 kinases (Homo sapiens, UniProt P68400); settings: CSNK2A1; read-out: % Inhibition @ 100 nM
[5] = molecular target: 468 kinases (Homo sapiens, UniProt O75914); settings: PAK3; read-out: % Inhibition @ 100 nM
[6] = molecular target: 468 kinases (Homo sapiens, UniProt P28482); settings: ERK2; read-out: % Inhibition @ 100 nM
[7] = molecular target: 468 kinases (Homo sapiens, UniProt Q96D53); settings: ADCK4; read-out: % Inhibition @ 100 nM
[8] = molecular target: 468 kinases (Homo sapiens, UniProt Q14680); settings: MELK; read-out: % Inhibition @ 100 nM
[9] = molecular target: 468 kinases (Homo sapiens, UniProt Q9UEE5); settings: DRAK1; read-out: % Inhibition @ 100 nM
[10] = molecular target: 468 kinases (Homo sapiens, UniProt Q8TF76); settings: HASPIN; read-out: % Inhibition @ 100 nM
[11] = molecular target: 468 kinases (Homo sapiens, UniProt Q92772); settings: CDKL2; read-out: % Inhibition @ 100 nM
[12] = molecular target: 468 kinases (Homo sapiens, UniProt P52333); settings: JAK3 (JH1domain-catalytic); read-out: % Inhibition @ 100 nM
[13] = molecular target: 468 kinases (Homo sapiens, UniProt P36888); settings: read-out: % Inhibition @ 100 nM
[14] = molecular target: 468 kinases (Homo sapiens, UniProt P51617); settings: IRAK1; read-out: % Inhibition @ 100 nM
[15] = molecular target: 468 kinases (Homo sapiens, UniProt P06213); settings: INSR; read-out: % Inhibition @ 100 nM
[16] = molecular target: 468 kinases (Homo sapiens, UniProt P27361); settings: ERK1; read-out: % Inhibition @ 100 nM
[17] = molecular target: 468 kinases (Homo sapiens, UniProt Q96J92); settings: WNK4; read-out: % Inhibition @ 100 nM
[18] = molecular target: 468 kinases (Homo sapiens, UniProt Q96NX5); settings: CAMK1G; read-out: % Inhibition @ 100 nM
[19] = molecular target: 468 kinases (Homo sapiens, UniProt Q16566); settings: CAMK4; read-out: % Inhibition @ 100 nM
[20] = molecular target: 468 kinases (Homo sapiens, UniProt Q09013); settings: DMPK; read-out: % Inhibition @ 100 nM
[21] = molecular target: 468 kinases (Homo sapiens, UniProt P57058); settings: HUNK; read-out: % Inhibition @ 100 nM
[22] = molecular target: 468 kinases (Homo sapiens, UniProt O00444); settings: PLK4; read-out: % Inhibition @ 100 nM
[23] = molecular target: 468 kinases (Homo sapiens, UniProt Q00535); settings: CDK5; read-out: % Inhibition @ 100 nM
[24] = molecular target: 468 kinases (Homo sapiens, UniProt P22607); settings: FGFR3; read-out: % Inhibition @ 100 nM
[25] = molecular target: 468 kinases (Homo sapiens, UniProt Q9NRP7); settings: STK36; read-out: % Inhibition @ 100 nM
[26] = molecular target: 468 kinases (Homo sapiens, UniProt Q8NFD2); settings: ANKK1; read-out: % Inhibition @ 100 nM
[27] = molecular target: 468 kinases (Homo sapiens, UniProt O14920); settings: IKK-beta; read-out: % Inhibition @ 100 nM
[28] = molecular target: 468 kinases (Homo sapiens, UniProt O14757); settings: CHEK1; read-out: % Inhibition @ 100 nM
[29] = molecular target: 468 kinases (Mycobacterium tuberculosis, UniProt P9WI81); settings: PKNB(M.tuberculosis); read-out: % Inhibition @ 100 nM
[30] = molecular target: 468 kinases (Homo sapiens, UniProt P00519); settings: read-out: % Inhibition @ 100 nM
[31] = molecular target: 468 kinases (Homo sapiens, UniProt P49336); settings: CDK8; read-out: % Inhibition @ 100 nM
[32] = molecular target: 468 kinases (Homo sapiens, UniProt Q9Y2U5); settings: MAP3K2; read-out: % Inhibition @ 100 nM
[33] = molecular target: 468 kinases (Homo sapiens, UniProt Q02763); settings: TIE2; read-out: % Inhibition @ 100 nM
468 kinases (Homo sapiens, UniProt Q02763), sequence (Q02763 23-1124 limits assumed): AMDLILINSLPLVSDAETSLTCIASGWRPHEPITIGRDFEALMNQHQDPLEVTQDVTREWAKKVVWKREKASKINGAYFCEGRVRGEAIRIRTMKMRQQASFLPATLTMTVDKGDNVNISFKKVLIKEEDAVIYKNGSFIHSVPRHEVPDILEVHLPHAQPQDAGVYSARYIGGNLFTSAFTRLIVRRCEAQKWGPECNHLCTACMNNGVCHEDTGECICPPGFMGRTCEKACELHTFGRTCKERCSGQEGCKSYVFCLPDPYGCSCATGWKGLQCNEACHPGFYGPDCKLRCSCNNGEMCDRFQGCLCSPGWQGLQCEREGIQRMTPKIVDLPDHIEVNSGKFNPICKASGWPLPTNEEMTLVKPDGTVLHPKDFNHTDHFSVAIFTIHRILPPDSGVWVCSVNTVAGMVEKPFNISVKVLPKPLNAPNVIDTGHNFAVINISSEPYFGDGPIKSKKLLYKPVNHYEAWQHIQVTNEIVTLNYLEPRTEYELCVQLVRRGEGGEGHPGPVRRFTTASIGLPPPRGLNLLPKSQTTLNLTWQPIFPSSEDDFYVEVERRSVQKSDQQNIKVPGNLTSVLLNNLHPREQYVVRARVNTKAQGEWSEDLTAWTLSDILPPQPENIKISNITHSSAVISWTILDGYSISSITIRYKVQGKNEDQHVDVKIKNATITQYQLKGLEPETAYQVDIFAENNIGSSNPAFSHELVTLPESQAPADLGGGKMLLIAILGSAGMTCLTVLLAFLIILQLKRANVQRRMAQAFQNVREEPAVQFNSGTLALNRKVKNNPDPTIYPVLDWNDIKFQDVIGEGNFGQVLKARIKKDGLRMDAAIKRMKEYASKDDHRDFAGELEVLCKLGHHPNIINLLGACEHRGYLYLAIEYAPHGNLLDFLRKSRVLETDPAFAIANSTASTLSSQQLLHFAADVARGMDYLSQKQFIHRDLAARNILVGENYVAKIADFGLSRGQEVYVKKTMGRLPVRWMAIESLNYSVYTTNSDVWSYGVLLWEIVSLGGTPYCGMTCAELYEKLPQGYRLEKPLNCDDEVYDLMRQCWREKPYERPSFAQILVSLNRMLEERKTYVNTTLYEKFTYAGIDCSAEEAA

468 kinases (Homo sapiens, UniProt P36888), sequence (P36888 27-993 limits assumed): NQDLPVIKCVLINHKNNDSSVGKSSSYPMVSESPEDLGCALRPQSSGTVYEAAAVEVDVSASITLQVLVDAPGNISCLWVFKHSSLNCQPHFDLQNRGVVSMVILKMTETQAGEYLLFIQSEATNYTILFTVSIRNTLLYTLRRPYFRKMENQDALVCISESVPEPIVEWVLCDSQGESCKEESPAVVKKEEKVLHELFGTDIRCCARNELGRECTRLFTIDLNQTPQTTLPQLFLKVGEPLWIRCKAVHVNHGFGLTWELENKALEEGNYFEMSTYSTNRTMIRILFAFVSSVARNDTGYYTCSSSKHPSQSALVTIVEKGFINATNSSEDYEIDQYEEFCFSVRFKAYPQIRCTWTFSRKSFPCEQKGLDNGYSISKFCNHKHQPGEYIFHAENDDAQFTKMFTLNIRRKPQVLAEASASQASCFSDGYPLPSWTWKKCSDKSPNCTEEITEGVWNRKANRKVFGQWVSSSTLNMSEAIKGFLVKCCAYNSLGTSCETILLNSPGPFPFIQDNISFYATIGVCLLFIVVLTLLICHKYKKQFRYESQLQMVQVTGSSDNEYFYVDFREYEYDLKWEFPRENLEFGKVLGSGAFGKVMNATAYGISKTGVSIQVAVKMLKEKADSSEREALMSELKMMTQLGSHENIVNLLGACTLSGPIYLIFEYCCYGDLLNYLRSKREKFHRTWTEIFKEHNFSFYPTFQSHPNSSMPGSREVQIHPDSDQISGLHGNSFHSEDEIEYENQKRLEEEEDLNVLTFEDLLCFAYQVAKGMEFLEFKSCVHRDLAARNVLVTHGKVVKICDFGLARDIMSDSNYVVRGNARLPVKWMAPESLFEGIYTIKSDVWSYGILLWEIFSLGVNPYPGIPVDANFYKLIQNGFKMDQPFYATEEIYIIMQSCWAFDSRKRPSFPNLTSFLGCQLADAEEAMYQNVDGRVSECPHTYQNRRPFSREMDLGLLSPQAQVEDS
468 kinases (Homo sapiens, UniProt P22607), sequence (P22607 23-806 limits assumed): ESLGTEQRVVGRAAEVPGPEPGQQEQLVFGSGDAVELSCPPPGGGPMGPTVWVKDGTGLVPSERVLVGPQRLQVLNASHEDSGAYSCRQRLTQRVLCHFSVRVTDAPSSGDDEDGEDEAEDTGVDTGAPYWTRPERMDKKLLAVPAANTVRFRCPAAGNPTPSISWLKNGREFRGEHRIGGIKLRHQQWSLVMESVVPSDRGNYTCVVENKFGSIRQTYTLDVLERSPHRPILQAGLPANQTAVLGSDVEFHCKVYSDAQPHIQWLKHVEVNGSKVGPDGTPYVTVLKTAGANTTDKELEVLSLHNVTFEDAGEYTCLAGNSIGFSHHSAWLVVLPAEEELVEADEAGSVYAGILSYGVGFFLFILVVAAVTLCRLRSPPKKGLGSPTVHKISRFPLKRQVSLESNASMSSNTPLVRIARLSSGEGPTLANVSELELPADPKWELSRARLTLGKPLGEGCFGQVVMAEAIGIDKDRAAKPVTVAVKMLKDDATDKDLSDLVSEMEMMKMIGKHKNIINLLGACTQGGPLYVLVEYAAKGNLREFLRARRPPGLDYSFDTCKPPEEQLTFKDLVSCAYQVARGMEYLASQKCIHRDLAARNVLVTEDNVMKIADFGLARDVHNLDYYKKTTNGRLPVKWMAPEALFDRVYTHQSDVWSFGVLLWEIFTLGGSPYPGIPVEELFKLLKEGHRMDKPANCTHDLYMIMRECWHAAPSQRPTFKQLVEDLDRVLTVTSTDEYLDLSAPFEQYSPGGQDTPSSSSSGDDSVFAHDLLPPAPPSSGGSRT
468 kinases (Homo sapiens, UniProt P28482), sequence (P28482 2-360 limits assumed): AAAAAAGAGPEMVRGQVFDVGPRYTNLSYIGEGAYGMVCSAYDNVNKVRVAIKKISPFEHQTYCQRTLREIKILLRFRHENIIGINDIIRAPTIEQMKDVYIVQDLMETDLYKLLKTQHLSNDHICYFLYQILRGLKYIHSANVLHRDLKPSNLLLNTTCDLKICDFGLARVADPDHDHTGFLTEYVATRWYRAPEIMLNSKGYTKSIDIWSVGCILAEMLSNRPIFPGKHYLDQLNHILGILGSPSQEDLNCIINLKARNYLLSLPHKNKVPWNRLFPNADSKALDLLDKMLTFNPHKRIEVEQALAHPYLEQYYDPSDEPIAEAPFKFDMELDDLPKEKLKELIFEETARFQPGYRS
468 kinases (Homo sapiens, UniProt P27361), sequence (P27361 2-379 limits assumed): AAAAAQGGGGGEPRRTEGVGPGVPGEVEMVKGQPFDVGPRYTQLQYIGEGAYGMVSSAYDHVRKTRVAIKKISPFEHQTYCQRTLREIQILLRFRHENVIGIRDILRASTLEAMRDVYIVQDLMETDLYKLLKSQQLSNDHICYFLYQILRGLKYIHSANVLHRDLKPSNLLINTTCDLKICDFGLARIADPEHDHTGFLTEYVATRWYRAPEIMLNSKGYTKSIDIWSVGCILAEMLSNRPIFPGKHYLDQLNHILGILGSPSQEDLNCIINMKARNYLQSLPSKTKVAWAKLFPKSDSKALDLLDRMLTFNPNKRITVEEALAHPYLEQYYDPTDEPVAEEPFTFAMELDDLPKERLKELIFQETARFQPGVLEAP
468 kinases (Homo sapiens, UniProt P06213), sequence (P06213 28-758 limits assumed): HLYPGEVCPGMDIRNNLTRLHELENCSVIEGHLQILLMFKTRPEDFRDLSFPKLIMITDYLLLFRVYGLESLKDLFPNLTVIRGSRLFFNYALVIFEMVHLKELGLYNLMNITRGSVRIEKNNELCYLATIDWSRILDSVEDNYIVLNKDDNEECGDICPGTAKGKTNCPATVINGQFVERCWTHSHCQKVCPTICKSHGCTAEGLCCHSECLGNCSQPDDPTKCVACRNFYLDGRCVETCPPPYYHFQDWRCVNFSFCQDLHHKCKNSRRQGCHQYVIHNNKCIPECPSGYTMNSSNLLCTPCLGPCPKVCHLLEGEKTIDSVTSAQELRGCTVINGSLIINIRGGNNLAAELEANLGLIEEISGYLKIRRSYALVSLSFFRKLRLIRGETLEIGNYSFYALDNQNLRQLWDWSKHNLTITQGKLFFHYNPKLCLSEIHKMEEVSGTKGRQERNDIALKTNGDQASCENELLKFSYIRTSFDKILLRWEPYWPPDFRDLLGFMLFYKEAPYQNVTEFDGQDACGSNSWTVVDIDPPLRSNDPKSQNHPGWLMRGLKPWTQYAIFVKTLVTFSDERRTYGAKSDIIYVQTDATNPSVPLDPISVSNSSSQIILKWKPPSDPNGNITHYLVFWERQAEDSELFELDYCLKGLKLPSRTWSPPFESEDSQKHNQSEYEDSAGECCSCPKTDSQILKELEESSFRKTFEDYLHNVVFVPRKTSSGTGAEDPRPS
468 kinases (Homo sapiens, UniProt P06213), sequence (P06213 763-1382 limits assumed): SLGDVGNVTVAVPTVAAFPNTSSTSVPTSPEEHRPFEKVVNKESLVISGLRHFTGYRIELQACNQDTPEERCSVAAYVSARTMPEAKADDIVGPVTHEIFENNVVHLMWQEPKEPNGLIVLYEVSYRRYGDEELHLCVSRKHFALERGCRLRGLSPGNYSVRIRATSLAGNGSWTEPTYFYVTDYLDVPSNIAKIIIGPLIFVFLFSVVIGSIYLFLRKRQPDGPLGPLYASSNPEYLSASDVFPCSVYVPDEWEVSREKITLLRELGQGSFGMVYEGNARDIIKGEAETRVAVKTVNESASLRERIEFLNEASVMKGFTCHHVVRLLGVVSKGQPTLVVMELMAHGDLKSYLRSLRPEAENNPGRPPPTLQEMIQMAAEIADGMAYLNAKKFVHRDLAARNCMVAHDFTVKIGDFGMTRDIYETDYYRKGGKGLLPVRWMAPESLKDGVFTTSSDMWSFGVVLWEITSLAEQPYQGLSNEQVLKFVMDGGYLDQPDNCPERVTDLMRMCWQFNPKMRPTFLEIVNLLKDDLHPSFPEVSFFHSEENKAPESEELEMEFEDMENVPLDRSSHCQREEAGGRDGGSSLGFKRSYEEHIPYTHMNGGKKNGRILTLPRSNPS

| SMILES | inhibition at 0.1 µM [1] | inhibition at 0.1 µM [2] | inhibition at 0.1 µM [3] | inhibition at 0.1 µM [4] | inhibition at 0.1 µM [5] | inhibition at 0.1 µM [6] | inhibition at 0.1 µM [7] | inhibition at 0.1 µM [8] | inhibition at 0.1 µM [9] | inhibition at 0.1 µM [10] | inhibition at 0.1 µM [11] | inhibition at 0.1 µM [12] | inhibition at 0.1 µM ([13]; FLT3 -autoinhibited) | inhibition at 0.1 µM ([13]; FLT3) | inhibition at 0.1 µM [14] | inhibition at 0.1 µM [15] | inhibition at 0.1 µM [16] | inhibition at 0.1 µM [17] | inhibition at 0.1 µM [18] | inhibition at 0.1 µM [19] | also measured |
| --- | --- | --- | --- | --- | --- | --- | --- | --- | --- | --- | --- | --- | --- | --- | --- | --- | --- | --- | --- | --- | --- |
| CCN(CC)CCNC(=O)c1c(C)[nH]c(/C=C2\C(=O)Nc3ccc(CCC(N)=O)cc32)c1C [Compound No. 16, (Z)-5-((5-(3-Amino-3-oxopropyl)-2-oxoindolin-3-ylidene)methyl)-N-(2-(diethylamino)ethyl)-2,4-dimethyl-1H-pyrrole-3-carboxamide] | 20% | 21% | 34% | 78% | 13% | 6% | 0% | 16% | 78% | 68% | 5% | 48% | 61% | 62% | 96.9% | 25% | 13% | 55% | 37% | 0% | inhibition at 0.1 µM [20]: 11%; inhibition at 0.1 µM [21]: 0%; inhibition at 0.1 µM [22]: 57%; inhibition at 0.1 µM [23]: 0%; inhibition at 0.1 µM [24]: 11%; inhibition at 0.1 µM [25]: 0%; inhibition at 0.1 µM [26]: 66%; inhibition at 0.1 µM [27]: 19%; inhibition at 0.1 µM [28]: 66%; inhibition at 0.1 µM [29]: 16%; inhibition at 0.1 µM ([30]; ABL1 -nonphosphorylated): 36%; inhibition at 0.1 µM [31]: 15%; inhibition at 0.1 µM [32]: 29%; inhibition at 0.1 µM [33]: 0% |
| CCN(CC)CCNC(=O)c1c(C)[nH]c(/C=C2\C(=O)Nc3ccc(CCO)cc32)c1C [Compound No. 10, (Z)—N-(2-(Diethylamino)ethyl)-5-((5-(2-hydroxyethyl)-2-oxoindolin-3-ylidene)methyl)-2,4-dimethyl-1H-pyrrole-3-carboxamide] | 0% | 18% | 20% | 0% | 36% | 8% | 0% | 4% | 71% | 59% | 10% | 17% | 81% | 96.7% | 99.3% | 0% | 0% | 0% | 0% | 0% | inhibition at 0.1 µM [20]: 0%; inhibition at 0.1 µM [21]: 13%; inhibition at 0.1 µM [22]: 0%; inhibition at 0.1 µM [23]: 0%; inhibition at 0.1 µM [24]: 52%; inhibition at 0.1 µM [25]: 0%; inhibition at 0.1 µM [26]: 53%; inhibition at 0.1 µM [27]: 8%; inhibition at 0.1 µM [28]: 42%; inhibition at 0.1 µM [29]: 0%; inhibition at 0.1 µM ([30]; ABL1 -nonphosphorylated): 54%; inhibition at 0.1 µM ([30]; ABL1 -phosphorylated): 44%; inhibition at 0.1 µM [31]: 23%; inhibition at 0.1 µM [32]: 77%; inhibition at 0.1 µM [33]: 0% |
